From publication PMC10041525, “New Dual Inhibitors of Bacterial Topoisomerases with Broad-Spectrum Antibacterial Activity and In Vivo Efficacy against Vancomycin-Intermediate Staphylococcus aureus” (Journal of Medicinal Chemistry, 2023)
“And” between values parts separate entries of the source, which are not always exact repeats. Equal values may be shown once. Read-outs that look alike come from different tables or passages of the source.

How the values were obtained:
topo IV from E. coli = molecular target: T1, topo IV from E. coli (Escherichia coli, UniProt P20083); experiment: relaxation HTS plate assay; assay type: biochemical
T1 construct: purchased Inspiralis
Procedure, shortened: (§1)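 E. coli gyrase tested by supercoiling and topo IV by relaxation in high-throughput plate format. IC50 from seven inhibitor concentrations; mean of three independent measurements.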

DNA gyrase from E. coli = molecular target: T2, DNA gyrase from E. coli (Escherichia coli, UniProt P0AES6); experiment: supercoiling HTS plate assay; assay type: biochemical
T2 construct: purchased Inspiralis
Procedure, shortened: as §1

E. coli ATCC 25922 = experiment: MIC broth microdilution (CLSI); assay type: cell-based; conditions: Escherichia coli, ATCC25922
Procedure, shortened: (§2)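 CLSI broth microdilution in cation-adjusted Mueller Hinton broth 2, 5 × 10^4 cells per well, top inhibitor concentration 64 μg/mL (≤0.64% DMSO). Incubated 18 h at 37 °C with shaking at 150 rpm, triplicates; MIC is the lowest concentration keeping mean OD600 increment below 1.5-fold background.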

[1] = system: Enterobacter cloacae spp. cloacae ATCC 13047; experiment: MIC broth microdilution (CLSI); assay type: cell-based; conditions: Enterobacter cloacae, ATCC13047
Procedure, shortened: as §2

[2] = system: S. aureus (VISA) ATCC 700699; experiment: MIC broth microdilution (CLSI); assay type: cell-based
Procedure, shortened: as §2

P. aeruginosa ATCC 27853 = experiment: MIC broth microdilution (CLSI); assay type: cell-based; conditions: Pseudomonas aeruginosa, ATCC27853
Procedure, shortened: as §2

E. faecium ATCC 700221 = experiment: MIC broth microdilution (CLSI); assay type: cell-based
K. pneumoniae ATCC 10031 = experiment: MIC broth microdilution (CLSI); assay type: cell-based
Procedure, shortened: as §2

[3] = system: S. aureus (MRSA) ATCC 43300; experiment: MIC broth microdilution (CLSI); assay type: cell-based
Procedure, shortened: as §2

S. aureus ATCC 29213 = experiment: MIC broth microdilution (CLSI); assay type: cell-based
Procedure, shortened: (§3)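 Cation-adjusted Mueller Hinton broth 2 microdilution, 5 × 10^4 cells per well in 100 μL, three parallel replicates, plates bagged to limit evaporation; growth read as OD600 after incubation.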

A. baumannii ATCC 17978 = experiment: MIC broth microdilution (CLSI); assay type: cell-based; conditions: Acinetobacter baumannii, ATCC17978
Procedure, shortened: as §3

[4] = Staphylococcus aureus, read-out: MIC
[5] = Enterococcus faecium, ATCC700221, read-out: MIC
[6] = Klebsiella pneumoniae, ATCC10031, read-out: MIC
[7] = Staphylococcus aureus; read-out: MIC
[8] = Staphylococcus aureus; read-out: MIC [µg/mL](S. aureus MRSA ATCC4330)
[9] = Staphylococcus aureus, ATCC29213; read-out: MIC
[10] = Staphylococcus aureus, ATCC29213; read-out: MIC [µg/mL](S. aureus ATCC 29213)
[11] = read-out: MIC [µg/mL] (A. baumannii ATCC 17978)
[12] = Enterococcus faecium, ATCC700221
[13] = Klebsiella pneumoniae, ATCC10031
[14] = Staphylococcus aureus, read-out: MIC [µg/mL](S. aureus MRSA ATCC4330)
[15] = Staphylococcus aureus, ATCC29213

T1 sequence (P0AFI2 whole entry): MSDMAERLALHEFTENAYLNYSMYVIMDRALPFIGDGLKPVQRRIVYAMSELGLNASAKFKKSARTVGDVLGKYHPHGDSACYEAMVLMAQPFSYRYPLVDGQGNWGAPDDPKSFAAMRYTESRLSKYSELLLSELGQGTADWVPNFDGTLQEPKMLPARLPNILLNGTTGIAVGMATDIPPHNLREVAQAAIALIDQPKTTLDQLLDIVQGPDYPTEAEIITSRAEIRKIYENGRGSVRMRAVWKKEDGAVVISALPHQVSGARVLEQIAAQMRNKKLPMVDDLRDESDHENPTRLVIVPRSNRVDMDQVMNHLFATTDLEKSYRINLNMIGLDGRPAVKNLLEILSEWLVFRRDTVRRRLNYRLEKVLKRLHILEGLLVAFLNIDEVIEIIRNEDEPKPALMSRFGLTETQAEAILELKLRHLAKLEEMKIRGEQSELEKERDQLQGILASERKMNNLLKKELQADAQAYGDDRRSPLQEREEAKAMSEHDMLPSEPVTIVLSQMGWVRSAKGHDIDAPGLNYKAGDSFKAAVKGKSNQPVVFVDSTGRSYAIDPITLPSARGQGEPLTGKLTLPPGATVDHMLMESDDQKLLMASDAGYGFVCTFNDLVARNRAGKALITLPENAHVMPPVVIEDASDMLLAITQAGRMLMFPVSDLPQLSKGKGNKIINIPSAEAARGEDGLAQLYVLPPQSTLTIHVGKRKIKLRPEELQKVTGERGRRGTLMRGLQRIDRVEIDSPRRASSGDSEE
T1 sequence (P20083 whole entry): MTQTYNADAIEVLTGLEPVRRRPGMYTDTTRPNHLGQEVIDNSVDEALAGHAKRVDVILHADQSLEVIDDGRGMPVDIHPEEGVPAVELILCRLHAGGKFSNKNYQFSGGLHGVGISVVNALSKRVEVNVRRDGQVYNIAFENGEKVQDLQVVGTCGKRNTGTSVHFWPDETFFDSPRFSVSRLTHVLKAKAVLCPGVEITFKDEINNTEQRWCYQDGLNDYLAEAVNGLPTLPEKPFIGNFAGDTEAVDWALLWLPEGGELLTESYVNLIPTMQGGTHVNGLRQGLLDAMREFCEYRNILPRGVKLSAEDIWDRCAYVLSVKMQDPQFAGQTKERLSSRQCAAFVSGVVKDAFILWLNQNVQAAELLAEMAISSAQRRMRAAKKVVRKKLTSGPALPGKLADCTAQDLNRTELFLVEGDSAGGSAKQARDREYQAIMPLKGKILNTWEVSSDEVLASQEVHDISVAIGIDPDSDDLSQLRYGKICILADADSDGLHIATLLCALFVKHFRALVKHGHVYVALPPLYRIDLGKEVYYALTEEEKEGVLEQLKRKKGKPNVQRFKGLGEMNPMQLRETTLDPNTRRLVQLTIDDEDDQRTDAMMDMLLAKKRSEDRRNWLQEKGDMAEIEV

Row | SMILES | IC50 (topo IV from E. coli; read-out: IC50) | IC50 (DNA gyrase from E. coli; IC50 [nM] E. coli DNA gyrase) | MIC (E. coli ATCC 25922; read-out: MIC) | MIC ([1]; read-out: MIC) | MIC [2, 4] | MIC (P. aeruginosa ATCC 27853; read-out: MIC) | MIC (E. faecium ATCC 700221; [5]) | MIC (K. pneumoniae ATCC 10031; [6]) | MIC [3, 7] | MIC [3, 8] | MIC (S. aureus ATCC 29213; [9]) | MIC (S. aureus ATCC 29213; [10]) | MIC (A. baumannii ATCC 17978; read-out: MIC) | MIC (A. baumannii ATCC 17978; [11]) | IC50 (DNA gyrase from E. coli; read-out: IC50) | further results
1 | Cc1[nH]c(C(=O)Nc2nc3c(N4CCOCC4)cc(C(=O)O)cc3s2)cc1Cl [16a, 2-(4-Chloro-5-methyl-1H-pyrrole-2-carboxamido)-4-morpholinobenzo[d]thiazole-6-carboxylic Acid] | < 100 nM and 38 nM | 13 ± 5 nM | > 64 µg/mL | > 64 µg/mL | 0.5 µg/mL | 64 µg/mL | 1 µg/mL | 2 µg/mL | 2 µg/mL | 2 µg/mL | 8 µg/mL | 8 µg/mL | > 64 µg/mL | > 64 µg/mL |  | MIC (K. pneumoniae ATCC 10031): 2 µg/mL
2 | Cc1[nH]c(C(=O)Nc2nc3c(N4CCOC[C@H]4C)cc(C(=O)O)cc3s2)c(Cl)c1Cl [7c, (R)-2-(3,4-Dichloro-5-methyl-1H-pyrrole-2-carboxamido)-4-(3-methylmorpholino)benzo[d]thiazole-6-carboxylic Acid] | 60 ± 36 nM | 30 ± 9 nM | 8 µg/mL | > 64 µg/mL | 0.0625 µg/mL | 8 µg/mL | < 0.0312 µg/mL | 1 µg/mL | 0.125 µg/mL | 0.125 µg/mL | 0.0625 µg/mL | 0.0625 µg/mL | 8 µg/mL | 8 µg/mL | 17 ± 8 nM | 
3 | Cc1[nH]c(C(=O)Nc2nc3c(N4CCOCC4C)cc(C(=O)O)cc3s2)c(Cl)c1Cl (stereo not shown) [7b, 2-(3,4-Dichloro-5-methyl-1H-pyrrole-2-carboxamido)-4-(3-methylmorpholino)benzo[d]thiazole-6-carboxylic Acid] | 78 ± 4 nM |  | 8 µg/mL | 32 µg/mL | < 0.0312 µg/mL | 8 µg/mL | < 0.0312 µg/mL | 2 µg/mL | < 0.0312 µg/mL | < 0.0312 µg/mL | 0.125 µg/mL | 0.125 µg/mL | 4 µg/mL | 4 µg/mL | < 10 nM | 
4 | COC[C@@H]1CCCN1c1cc(C(=O)O)cc2sc(NC(=O)c3[nH]c(C)c(Cl)c3Cl)nc12 [7o, (S)-2-(3,4-Dichloro-5-methyl-1H-pyrrole-2-carboxamido)-4-(2-(methoxymethyl)pyrrolidin-1-yl)benzo[d]thiazole-6-carboxylic Acid] | 280 ± 14 nM | 25 nM | 16 µg/mL | > 64 µg/mL | 0.0625 µg/mL | 16 µg/mL | < 0.0312 µg/mL | 16 µg/mL | 0.0625 µg/mL | 0.0625 µg/mL | 0.0625 µg/mL | 0.0625 µg/mL | 16 µg/mL | 16 µg/mL |  | 
5 | Cc1[nH]c(C(=O)Nc2nc3c(N4CCOC(C)C4)cc(C(=O)O)cc3s2)c(Cl)c1Cl (stereo not shown) [7e, 2-(3,4-Dichloro-5-methyl-1H-pyrrole-2-carboxamido)-4-(2-methylmorpholino)benzo[d]thiazole-6-carboxylic Acid] | 91 ± 3 nM |  | 8 µg/mL | > 64 µg/mL | < 0.0312 µg/mL | 16 µg/mL | < 0.0312 µg/mL | 2 µg/mL | 0.0625 µg/mL | 0.0625 µg/mL | 0.0625 µg/mL | 0.0625 µg/mL | 8 µg/mL | 8 µg/mL | < 10 nM | 
6 | Cc1[nH]c(C(=O)Nc2nc3c(N4CCOC(C(F)(F)F)C4)cc(C(=O)O)cc3s2)c(Cl)c1Cl (stereo not shown) [7i, 2-(3,4-Dichloro-5-methyl-1H-pyrrole-2-carboxamido)-4-(2-(trifluoromethyl)morpholino)benzo[d]thiazole-6-carboxylic Acid] |  |  |  |  |  |  |  |  |  |  |  |  |  |  | < 10 nM | IC50 (topo IV from E. coli; IC50): 63 ± 1 nM; MIC (E. coli ATCC 25922): 16 µg/mL; MIC [1]: > 64 µg/mL; MIC ([2]; Staphylococcus aureus): < 0.0312 µg/mL; MIC (P. aeruginosa ATCC 27853): 4 µg/mL; MIC (E. faecium ATCC 700221; [12]): < 0.0312 µg/mL; MIC (K. pneumoniae ATCC 10031; [13]): 4 µg/mL; MIC ([3]; Staphylococcus aureus): < 0.0312 µg/mL; MIC [3, 14]: < 0.0312 µg/mL; MIC (S. aureus ATCC 29213; [15]): < 0.0312 µg/mL; MIC (A. baumannii ATCC 17978): 4 µg/mL
7 | Cc1[nH]c(C(=O)Nc2nc3c(N4CCOCC4)cc(C(=O)O)cc3s2)cc1F [16b, 2-(4-Fluoro-5-methyl-1H-pyrrole-2-carboxamido)-4-morpholinobenzo[d]thiazole-6-carboxylic Acid] | 120 nM | 31 ± 6 nM | > 64 µg/mL |  | 8 µg/mL |  | 2 µg/mL |  | 32 µg/mL | 32 µg/mL | 64 µg/mL | 64 µg/mL |  | > 64 µg/mL |  | MIC (E. faecium ATCC 700221): 2 µg/mL
8 | Cc1[nH]c(C(=O)Nc2nc3c(N4CCC(O)CC4)cc(C(=O)O)cc3s2)c(Cl)c1Cl [7p, 2-(3,4-Dichloro-5-methyl-1H-pyrrole-2-carboxamido)-4-(4-hydroxypiperidin-1-yl)benzo[d]thiazole-6-carboxylic Acid] | 140 ± 3 nM | < 10 nM | > 64 µg/mL | > 64 µg/mL | 0.5 µg/mL | > 64 µg/mL | < 0.0312 µg/mL | 4 µg/mL | 4 µg/mL | 4 µg/mL | 4 µg/mL | 4 µg/mL | > 64 µg/mL | > 64 µg/mL |  | MIC (K. pneumoniae ATCC 10031): 4 µg/mL
9 | Cc1[nH]c(C(=O)Nc2nc3c(N4CCOCC4)cc(C(=O)O)cc3s2)c(Cl)c1Cl [7a, 2-(3,4-Dichloro-5-methyl-1H-pyrrole-2-carboxamido)-4-morpholinobenzo[d]thiazole-6-carboxylic Acid] |  |  |  |  |  |  |  |  |  |  |  |  |  |  | < 10 nM | MIC (E. coli ATCC 25922): 8 µg/mL; MIC [1]: > 64 µg/mL; MIC [2]: <0.03125 µg/mL; MIC ([2]; Staphylococcus aureus): < 0.0312 µg/mL; MIC (P. aeruginosa ATCC 27853): 16 µg/mL; MIC (E. faecium ATCC 700221; [12]): < 0.0312 µg/mL; MIC (K. pneumoniae ATCC 10031; [13]): 0.5 µg/mL; MIC ([3]; Staphylococcus aureus): 0.0625 µg/mL; MIC [3, 14]: 0.25 µg/mL; MIC (S. aureus ATCC 29213; [15]): 0.25 µg/mL; MIC (S. aureus ATCC 29213; Staphylococcus aureus, ATCC29213, read-out: MIC [µg/mL](S. aureus ATCC 29213)): 0.25 µg/mL
10 | Cc1[nH]c(C(=O)Nc2nc3c(N4CC(C)OC(C)C4)cc(C(=O)O)cc3s2)c(Cl)c1Cl (stereo not shown) [7f, 2-(3,4-Dichloro-5-methyl-1H-pyrrole-2-carboxamido)-4-(2,6-dimethylmorpholino)benzo[d]thiazole-6-carboxylic Acid] | 82 ± 29 nM |  | 8 µg/mL | > 64 µg/mL | < 0.0312 µg/mL | 8 µg/mL | < 0.0312 µg/mL | 8 µg/mL | < 0.0312 µg/mL | < 0.0312 µg/mL | < 0.0312 µg/mL | < 0.0312 µg/mL | 1 µg/mL | 1 µg/mL | < 10 nM | 
11 | COCC1CCCN1c1cc(C(=O)O)cc2sc(NC(=O)c3[nH]c(C)c(Cl)c3Cl)nc12 (stereo not shown) [7n, 2-(3,4-Dichloro-5-methyl-1H-pyrrole-2-carboxamido)-4-(2-(methoxymethyl)pyrrolidin-1-yl)benzo[d]thiazole-6-carboxylic Acid] | 210 ± 7 nM | 14 ± 6 nM | 8 µg/mL | > 64 µg/mL | 0.0625 µg/mL | 8 µg/mL | < 0.0312 µg/mL | 8 µg/mL | 0.0625 µg/mL | 0.0625 µg/mL | 0.0625 µg/mL | 0.0625 µg/mL | 8 µg/mL | 8 µg/mL |  | 
12 | Cc1[nH]c(C(=O)Nc2nc3c(N4C[C@H]5CC[C@@H](C4)O5)cc(C(=O)O)cc3s2)c(Cl)c1Cl [7g, 4-((1R,5S)-8-Oxa-3-azabicyclo[3.2.1]octan-3-yl)-2-(3,4-dichloro-5-methyl-1H-pyrrole-2-carboxamido)benzo[d]thiazole-6-carboxylic Acid] | 16 ± 8 nM |  | 2 µg/mL | 16 µg/mL | < 0.0312 µg/mL | 2 µg/mL | < 0.0312 µg/mL | 2 µg/mL | < 0.0312 µg/mL | < 0.0312 µg/mL | < 0.0312 µg/mL | < 0.0312 µg/mL | 1 µg/mL | 1 µg/mL | < 10 nM | 
13 | Cc1[nH]c(C(=O)Nc2nc3c(N4[C@@H]5CC[C@H]4COC5)cc(C(=O)O)cc3s2)c(Cl)c1Cl [7h, 4-((1R,5S)-3-Oxa-8-azabicyclo[3.2.1]octan-8-yl)-2-(3,4-dichloro-5-methyl-1H-pyrrole-2-carboxamido)benzo[d]thiazole-6-carboxylic Acid] |  | 16 ± 6 nM | 4 µg/mL | 16 µg/mL | 0.0625 µg/mL | 4 µg/mL | < 0.0312 µg/mL | 2 µg/mL | < 0.0312 µg/mL | < 0.0312 µg/mL | < 0.0312 µg/mL | < 0.0312 µg/mL | 2 µg/mL | 2 µg/mL | 13 ± 1 nM | 
